Data published in patent publication US10703757B2, “Compounds and methods for CDK8 modulation and indications therefor” (Plexxikon Inc., priority 2016, dated 2020).

Key:
[1] = system: CDK8 (phosphorylation of STAT1 at serine 727 in A549 cells); assay: Cell based Phospho-STAT1 assay (IFNγ-stimulated A549 cells, AlphaLISA); settings: Homo sapiens, A549, A549 cells, phospho-STAT1 after IFNγ stimulation
Method in brief: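 A549 cells given serial compound dilutions for 1 h at 37 °C, then stimulated with IFNγ at 10 ng/mL final for 30 min. Lysate STAT1 Ser727 phosphorylation measured by AlphaLISA; % inhibition vs stimulated/unstimulated DMSO controls, IC50 by nonlinear regression.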

[2] = system: CDK8 (TCF/LEF luciferase reporter in HCT116 cells); assay: Cell based TCF/LEF reporter assay (HCT116+TCF/LEF luciferase); settings: Homo sapiens, HCT-116, 24 h
Method in brief: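 HCT116 cells stably carrying a TCF/LEF-luciferase reporter (endogenous mutant β-catenin), seeded overnight, then exposed to serial compound dilutions for 24 h at 37 °C. Luminescence normalized to CellTiter-Fluor viability signal. % inhibition relative to DMSO and 10 uM CCT251545 controls, with IC50 from nonlinear regression.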

SMILES	IC50 [1] [nM]	IC50 [2] [nM]
Cn1cc(-c2ccc(-c3cnn4cccc(N5CCC(F)(C(N)=O)CC5)c34)cc2)cn1 [Compound P-0285, 4-fluoro-1-(3-(4-(1-methyl-1H-pyrazol-4-yl)phenyl)pyrazolo[1,5-a]pyridin-4-yl)piperidine-4-carboxamide]	100 to 1000	100 to 1000
Cn1cc(-c2ccc(-c3cnc4[nH]ccc4c3N3CCC4(CC3)C(=O)Nc3ccccc34)cc2)cn1 [Compound P-0272, 1′-(5-(4-(1-methyl-1H-pyrazol-4-yl)phenyl)-1H-pyrrolo[2,3-b]pyridin-4-yl)spiro[indoline-3,4′-piperidin]-2-one]	100 to 1000	0.1 to 100
CC(C)(O)Cn1cc(-c2ccc(-c3cnc4[nH]ccc4c3C#CC(C)(C)C(N)=O)cc2)cn1 [Compound P-0133, 4-[5-[4-[1-(2-hydroxy-2-methyl-propyl)pyrazol-4-yl]phenyl]-1H-pyrrolo[2,3-b]pyridin-4-yl]-2,2-dimethyl-but-3-ynamide]	100 to 1000	100 to 1000
Cn1cc(-c2ccc(-c3cnn4cccc(C5=CCC(C(=O)O)CC5)c34)cc2)cn1 (stereo not drawn) [Compound P-0444, 4-(3-(4-(1-methyl-1H-pyrazol-4-yl)phenyl)pyrazolo[1,5-a]pyridin-4-yl)cyclohex-3-ene-1-carboxylic acid]	100 to 1000	100 to 1000
Cn1cc(-c2ccc(-c3cnn4cccc(C#CC(C)(C)C(N)=O)c34)cc2)cn1 [Compound P-0295, 2,2-dimethyl-4-(3-(4-(1-methyl-1H-pyrazol-4-yl)phenyl)pyrazolo[1,5-a]pyridin-4-yl)but-3-ynamide]	0.1 to 100	0.1 to 100
CCn1cc(-c2ccc(-c3cnn4cccc(C#CC(C)(C)O)c34)cc2)cn1 [Compound P-0232, 4-(3-(4-(1-ethyl-1H-pyrazol-4-yl)phenyl)pyrazolo[1,5-a]pyridin-4-yl)-2-methylbut-3-yn-2-ol]	0.1 to 100	0.1 to 100
CC(C)(O)Cn1cc(-c2ccc(-c3cnc4[nH]cc(Cl)c4c3N3CCC(C#N)CC3)cc2)cn1 [Compound P-0204, 1-(3-chloro-5-(4-(1-(2-hydroxy-2-methylpropyl)-1H-pyrazol-4-yl)phenyl)-1H-pyrrolo[2,3-b]pyridin-4-yl)piperidine-4-carbonitrile]	0.1 to 100	0.1 to 100
Cn1cc(-c2ccc(-c3cnn4cccc(C#CC(C)(C)NS(C)(=O)=O)c34)cc2)cn1 [Compound P-0308, N-(2-methyl-4-(3-(4-(1-methyl-1H-pyrazol-4-yl)phenyl)pyrazolo[1,5-a]pyridin-4-yl)but-3-yn-2-yl)methanesulfonamide]	100 to 1000	100 to 1000
CC(C)(C#Cc1nccn2ncc(-c3ccc4c(cnn4C(F)F)c3)c12)C(N)=O [Compound P-0095, 4-(3-(1-(difluoromethyl)-1H-indazol-5-yl)pyrazolo[1,5-a]pyrazin-4-yl)-2,2-dimethylbut-3-ynamide]	0.1 to 100	0.1 to 100
N#CC1CCC(c2cccn3ncc(-c4ccc(-n5ccnn5)cc4)c23)CC1 (mixture of isomers) [Compound P-0217, (1r,4r) and (1s,4s)-4-[3-[4-(triazol-1-yl)phenyl]pyrazolo[1,5-a]pyridin-4-yl]cyclohexanecarbonitrile]	0.1 to 100	0.1 to 100
Cn1cc(-c2ccc(-c3cnc4cccc(C5=CCC(C(N)=O)CC5)n34)cc2)cn1 (stereo not drawn) [Compound P-0416, 4-(3-(4-(1-methyl-1H-pyrazol-4-yl)phenyl)imidazo[1,2-a]pyridin-5-yl)cyclohex-3-ene-1-carboxamide]	100 to 1000	100 to 1000
Cn1cc(-c2ccc(-c3cnn4cccc(N5CCC(F)(C#N)CC5)c34)cc2)cn1 [Compound P-0293, 4-fluoro-1-(3-(4-(1-methyl-1H-pyrazol-4-yl)phenyl)pyrazolo[1,5-a]pyridin-4-yl)piperidine-4-carbonitrile]	0.1 to 100	1000 to 10000
CC(C)(O)Cn1ncc2cc(-c3cnn4ccnc(C5=CCC(C#N)CC5)c34)ccc21 (stereo not drawn) [Compound P-0111, 4-(3-(1-(2-hydroxy-2-methylpropyl)-1H-indazol-5-yl)pyrazolo[1,5-a]pyrazin-4-yl)cyclohex-3-ene-1-carbonitrile]	0.1 to 100	0.1 to 100
N#CCCCn1cc(-c2ccc(-c3cnn4ccnc(C5CCC(C#N)CC5)c34)cc2)cn1 (stereo not drawn) [Compound P-0002, (1s,4s)-4-(3-(4-(1-(3-cyanopropyl)-1H-pyrazol-4-yl)phenyl)pyrazolo[1,5-a]pyrazin-4-yl)cyclohexane-1-carbonitrile]	0.1 to 100	0.1 to 100
N#CC1CCC(c2nccn3ncc(-c4ccc(-c5cnn(CCN6CCOCC6)c5)cc4)c23)CC1 (stereo not drawn) [Compound P-0016, (1s,4s)-4-(3-(4-(1-(2-morpholinoethyl)-1H-pyrazol-4-yl)phenyl)pyrazolo[1,5-a]pyrazin-4-yl)cyclohexane-1-carbonitrile]	0.1 to 100	0.1 to 100
N#CCCn1cc(-c2ccc(-c3cnn4ccnc(C5=CCC(C#N)CC5)c34)cc2F)cn1 (stereo not drawn) [Compound P-0030, 4-(3-(4-(1-(2-cyanoethyl)-1H-pyrazol-4-yl)-3-fluorophenyl)pyrazolo[1,5-a]pyrazin-4-yl)cyclohex-3-ene-1-carbonitrile]	0.1 to 100	0.1 to 100
N#CC1CC=C(c2cccn3ncc(-c4ccc(CN5CCOCC5)c(F)c4)c23)CC1 (stereo not drawn) [Compound P-0120, 4-(3-(3-fluoro-4-(morpholinomethyl)phenyl)pyrazolo[1,5-a]pyridin-4-yl)cyclohex-3-ene-1-carbonitrile]	0.1 to 100	100 to 1000
CC(C)(O)Cn1cc(-c2ccc(-c3cnn4ccnc(C5CCC(C#N)CC5)c34)c(F)c2)cn1 (stereo not drawn) [Compound P-0001, (1s,4s)-4-(3-(2-fluoro-4-(1-(2-hydroxy-2-methylpropyl)-1H-pyrazol-4-yl)phenyl)pyrazolo[1,5-a]pyrazin-4-yl)cyclohexane-1-carbonitrile]	0.1 to 100	0.1 to 100
CC(C)(O)Cn1ncc2cc(-c3cnn4ccnc(C#CC(C)(C)C(N)=O)c34)ccc21 [Compound P-0091, 4-(3-(1-(2-hydroxy-2-methylpropyl)-1H-indazol-5-yl)pyrazolo[1,5-a]pyrazin-4-yl)-2,2-dimethylbut-3-ynamide]	0.1 to 100	0.1 to 100
Cn1cc(-c2ccc(-c3cnn4ccnc(C#CC(C)(C)C(N)=O)c34)cc2)cn1 [Compound P-0003, 2,2-dimethyl-4-(3-(4-(1-methyl-1H-pyrazol-4-yl)phenyl)pyrazolo[1,5-a]pyrazin-4-yl)but-3-ynamide]	0.1 to 100	0.1 to 100

More lines, now with the values ahead:

IC50 [1] [nM]	IC50 [2] [nM]	SMILES
0.1 to 100	100 to 1000	Cn1cc(-c2ccc(-c3cnn4cccc(C#CCOCCO)c34)cc2)cn1 [Compound P-0245, 2-((3-(3-(4-(1-methyl-1H-pyrazol-4-yl)phenyl)pyrazolo[1,5-a]pyridin-4-yl)prop-2-yn-1-yl)oxy)ethan-1-ol]
0.1 to 100	0.1 to 100	CC(C)(C#Cc1nccn2ncc(-c3ccc4cc(NS(C)(=O)=O)ccc4c3)c12)C(N)=O [Compound P-0115, 2,2-dimethyl-4-(3-(6-(methylsulfonamido)naphthalen-2-yl)pyrazolo[1,5-a]pyrazin-4-yl)but-3-ynamide]
0.1 to 100	0.1 to 100	N#CC1CC=C(c2cccn3ncc(-c4ccc(OCCN5CCOCC5)cc4)c23)CC1 (stereo not drawn) [Compound P-0183, 4-(3-(4-(2-morpholino-ethoxy)phenyl)pyrazolo[1,5-a]pyridin-4-yl)cyclohex-3-ene-1-carbonitrile]
0.1 to 100	0.1 to 100	N#CC1CCC(c2cccn3ncc(-c4ccc(-n5cccn5)cc4)c23)CC1 (stereo not drawn) [Compound P-0218, 4-(3-(4-(1H-pyrazol-1-yl)phenyl)pyrazolo[1,5-a]pyridin-4-yl)cyclohexane-1-carbonitrile]
0.1 to 100	0.1 to 100	COc1ncc(C#Cc2cnc3cccc(C4=CCC(C#N)CC4)n23)cn1 (stereo not drawn) [Compound P-0314, 4-(3-((2-methoxypyrimidin-5-yl)ethynyl)imidazo[1,2-a]pyridin-5-yl)cyclohex-3-ene-1-carbonitrile]
0.1 to 100	0.1 to 100	Cc1nc2ccc(-c3cnn4cccc(C5=CCC(C#N)CC5)c34)cc2s1 (stereo not drawn) [Compound P-0214, 4-(3-(2-methylbenzo[d]thiazol-6-yl)pyrazolo[1,5-a]pyridin-4-yl)cyclohex-3-ene-1-carbonitrile]
0.1 to 100	0.1 to 100	Cn1ncc2cc(-c3cnn4cccc(N5CCC6(CCNC6=O)CC5)c34)ccc21 [Compound P-0169, 8-(3-(1-methyl-1H-indazol-5-yl)pyrazolo[1,5-a]pyridin-4-yl)-2,8-diazaspiro[4.5]decan-1-one]
0.1 to 100	100 to 1000	Cc1cc(-c2cnn3ccnc(C4=CCC(C#N)CC4)c23)ccc1C#N (stereo not drawn) [Compound P-0097, 4-(4-(4-cyanocyclohex-1-en-1-yl)pyrazolo[1,5-a]pyrazin-3-yl)-2-methylbenzonitrile]
0.1 to 100	0.1 to 100	N#CC1CC=C(c2cccc3ncc(-c4ccc(-c5cnn(C(F)F)c5)cc4)n23)CC1 (stereo not drawn) [Compound P-0438, 4-(3-(4-(1-(difluoromethyl)-1H-pyrazol-4-yl)phenyl)imidazo[1,2-a]pyridin-5-yl)cyclohex-3-ene-1-carbonitrile]
0.1 to 100	0.1 to 100	CS(=O)(=O)Cn1cc(-c2ccc(-c3cnn4ccnc(C5CCC(C#N)CC5)c34)cc2)cn1 (stereo not drawn) [Compound P-0023, (1s,4s)-4-(3-(4-(1-((methylsulfonyl)methyl)-1H-pyrazol-4-yl)phenyl)pyrazolo[1,5-a]pyrazin-4-yl)cyclohexane-1-carbonitrile]
